Experiments:
Type in all cases: biochemical
[1] = biological target: T1, BACE1 (Homo sapiens, UniProt P56817); test: BACE1 (β-secretase) FRET inhibitory assay; details: isolated compounds; mean ± SD, n = 3; read-out: IC50 BACE1
T1 construct: purchased PanVera Corporation, Madison, WI, USA P2985
Experimental: The BACE1 inhibition assay was conducted using the BACE1 (β-secretase) FRET Assay Kit, Red Protocol, part number P2985 (PanVera® Corporation, Madison, WI, USA), following the manufacturer’s recommended protocol with minor modifications. The assay mixture consisted of 10 μL of BACE1 (1.0 U/mL), 10 μL of substrate (750 nM Rh-[…]-Quencher in 50 mM ammonium bicarbonate), the assay buffer (50 mM sodium acetate, pH 4.5), and 10 μL of the test samples. […] The reaction mixture was incubated for 60 min at room temperature in darkness. Before measurement, a stop solution (2.5 M sodium acetate) was added to halt the reaction. BACE1 enzyme activity was assessed by monitoring the proteolysis of two fluorophores (Rh-[…]-Quencher), forming the fluorescent donor (Rh-EVNL) with increased fluorescence wavelengths at 530–545 nm (excitation) and 570–590 nm (emission), respectively. All reactions were recorded in black 96-well microplates and performed in triplicate. The percentage of inhibition (%) was calculated using the following formula: inhibition (%)=[1−(S60−S0)/(C60−C0)]×100 , where C60 represents the fluorescence of the control after incubation, C0 represents the initial fluorescence of the control, S60 represents the fluorescence of the tested sample after incubation, and S0 represents the initial fluorescence of the tested sample. The BACE1-inhibitory activities of each sample were quantified in terms of IC50, which was determined from the log–dose inhibition curve.

[2] = biological target: T2, MAO-B (Homo sapiens, UniProt P27338); test: MAO-B inhibitor screening kit (fluorometric) assay; details: isolated compounds; mean ± SD, n = 3; ND = no detection using test concentration
T2 construct: purchased Abcam plc, Cambridge, UK ab284511
T2 sequence (P27338 1-520): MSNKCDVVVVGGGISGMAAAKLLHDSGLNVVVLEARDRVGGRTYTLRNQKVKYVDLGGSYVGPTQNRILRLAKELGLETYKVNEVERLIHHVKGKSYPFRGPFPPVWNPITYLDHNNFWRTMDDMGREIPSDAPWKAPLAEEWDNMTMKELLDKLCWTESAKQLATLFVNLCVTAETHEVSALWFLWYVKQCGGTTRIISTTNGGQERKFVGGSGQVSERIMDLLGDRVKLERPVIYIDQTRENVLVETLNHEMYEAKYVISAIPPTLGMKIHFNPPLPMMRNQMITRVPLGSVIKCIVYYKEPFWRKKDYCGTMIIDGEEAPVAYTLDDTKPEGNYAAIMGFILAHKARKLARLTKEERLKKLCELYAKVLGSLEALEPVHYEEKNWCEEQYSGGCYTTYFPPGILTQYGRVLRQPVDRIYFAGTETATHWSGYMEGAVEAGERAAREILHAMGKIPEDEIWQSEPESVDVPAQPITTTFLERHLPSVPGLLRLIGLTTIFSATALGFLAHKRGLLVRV
Experimental: The MAO-B-inhibition assay was conducted using the MAO-B Inhibitor Screening Kit (Fluorometric) ab284511 (Abcam plc, Cambridge, UK), following the manufacturer’s recommended protocol with minor modifications. The enzyme solution (50 µL) and the test sample (10 µL) were adjusted as per the manual instructions. […] After mixing, samples and enzymes were incubated at 25 °C for 10 min. Subsequently, 40 μL of MAO-B substrate (comprising MAO-B assay buffer, MAO substrate, developer, and OxiRed probe) was added, followed by further incubation at 25 °C for 5 min. Fluorescence was measured using enzyme-linked immunosorbent assay within 40 min with dynamic fluorescence (Ex/Em = 535/587 nm). All reactions were recorded in black 96-well microplates and performed in triplicate. The slope for all samples, including the enzyme control (EC), was calculated by dividing the net ΔRFU (RFU2–RFU1) values by the time Δt (T2 − T1). The % relative inhibition was computed as follows: % relative inhibition=(slope of EC−slope of S)/slope of EC×100 . The MAO-B-inhibitory activities of each sample were quantified in terms of IC50, as determined from the log–dose inhibition curve.

[3] = biological target: T3, Aβ1-42 (Homo sapiens, UniProt P05067); test: Thioflavin T assay, Aβ aggregation; details: 24 h, Aβ1-42 20 μM
T3 construct: Aβ1-42 used for the Th T assay was purchased from GL Biochem, Shanghai, China; purchased GL Biochem, Shanghai, China
T3 sequence (P05067 672-713 limits assumed): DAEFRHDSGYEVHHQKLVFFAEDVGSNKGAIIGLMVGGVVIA
Experimental: (§1) The Th T assay was conducted to assess the aggregation of Aβ into oligomers and fibrils. Aβ1-42 was dissolved in DMSO at a concentration of 1 mg/mL, and test samples were also dissolved in DMSO. Aβ1-42 (20 μM) was incubated with various concentrations of test samples at 37 °C for 24 h to evaluate the effects of test samples on Aβ aggregation. Subsequently, 3 μM of Th T was added, and fluorescence was measured after 30 min using an E-max precision microplate reader with excitation at 442 nm and emission at 485 nm (Epoch, BioTek, Winooski, VT, USA). Aβ treated with DMSO only served as a control, and each assay was performed in triplicate. Then, the Th T assay was performed to assess the effects of test samples on the disaggregation of preformed Aβ aggregates. Briefly, 20 μM of Aβ1-42 was incubated at 37 °C for 24 h. Various concentrations of test samples were then added and incubated at 37 °C for an additional 24 h. Subsequently, 3 μM of Th T was added, and fluorescence was measured after 30 min using an E-max precision microplate reader with excitation at 442 nm and emission at 485 nm (Epoch, BioTek, Winooski, VT, USA). Aβ treated with DMSO only served as a control, and each assay was performed in triplicate.

[4] = biological target: T3, Aβ1-42; test: Thioflavin T assay, disaggregation of preformed Aβ aggregates; details: 24 h with Aβ pre-aggregated for 24 h
Experimental: as §1

T1 sequence (P56817 46-501): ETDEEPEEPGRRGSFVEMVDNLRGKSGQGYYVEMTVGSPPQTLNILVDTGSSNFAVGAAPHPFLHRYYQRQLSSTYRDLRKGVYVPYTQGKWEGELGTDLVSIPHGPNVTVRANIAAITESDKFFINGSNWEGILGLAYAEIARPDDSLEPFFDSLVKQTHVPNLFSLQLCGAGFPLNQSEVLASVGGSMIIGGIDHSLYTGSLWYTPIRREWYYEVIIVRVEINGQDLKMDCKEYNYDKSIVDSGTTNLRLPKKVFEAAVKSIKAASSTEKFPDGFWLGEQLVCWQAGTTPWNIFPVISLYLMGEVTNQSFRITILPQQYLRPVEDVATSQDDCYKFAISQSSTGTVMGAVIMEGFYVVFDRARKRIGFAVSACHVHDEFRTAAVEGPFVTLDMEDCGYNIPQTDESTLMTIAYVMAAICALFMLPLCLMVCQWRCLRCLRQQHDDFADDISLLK

| SMILES | IC50 [1] [µM] | IC50 [2] [µM] | Aβ aggregation reduced to % of the levels in the DMSO-treated control ([3]; 0.5 μM) [%] | decrease of Aβ aggregation relative to DMSO-treated control ([3]; 0.5 μM) [%] | Aβ aggregation reduced to % of the levels in the DMSO-treated control ([3]; 1.0 μM) | decrease of Aβ aggregation relative to DMSO-treated control ([3]; 1.0 μM) | degradation of preformed Aβ aggregates ([4]; 0.5 μM) [%] | degradation of preformed Aβ aggregates ([4]; 1.0 μM) |
| --- | --- | --- | --- | --- | --- | --- | --- | --- |
| O=c1c(O[C@@H]2O[C@H](CO)[C@@H](O)[C@H](O)[C@H]2O)c(-c2ccc(O)cc2)oc2cc(O[C@@H]3O[C@@H](CO)[C@H](O)[C@H]3O)cc(O)c12 [Compound 7, kaempferol 3-o-b-d-glucopyranoside-7-o-a-L-arabinofuranoside] | 39.11 ± 0.17 | 65.8 ± 3.72 | ~55 | 55 | approximately 80% | ~80% | ~60 |  |
| C[C@@H]1O[C@@H](Oc2c(-c3ccc(O)cc3)oc3cc(O[C@@H]4O[C@H](CO)[C@@H](O)[C@H](O)[C@H]4O)cc(O)c3c2=O)[C@H](O)[C@H](O)[C@H]1O [Compound 6, kaempferol 3-O-rhamnoside 7-O-glucoside] | 83.27 ± 0.33 | 109.19 ± 0.08 |  |  |  | approximately 40% |  | approximately 45% |

From publication PMC11358882, “Neuroprotective Effects of Phenolic Constituents from Drynariae Rhizoma” (Pharmaceuticals, 2024)
